Data on seven molecules can be found in US11634443B2, “Treprostinil prodrugs” (United Therapeutics Corporation, priority 2019, dated 2023).

A short description of data set [1]: Stability and formation of treprostinil in human cryopreserved hepatocytes.
Data set [2] can be described thus: Stability and formation of treprostinil in rat cryopreserved hepatocytes.
The nature of data set [3]: Stability and formation of treprostinil in dog cryopreserved hepatocytes.
Data set [4] addresses T1, prostaglandin I2 (PGI2) receptor (IP) (Homo sapiens, UniProt P43119).
T1 construct: expressed in transfected cells; host or cells: CHO-K1
Description: IP receptor cAMP assay (agonist mode). It counts as cell-based. The note with it: Table 24; relative to treprostinil EC50 values; * partial agonists or ambiguous dose-response curves; image character = too high to realistically calculate.

Data set [5] deals with T2, prostaglandin E2 (PGE2) receptor 2 (EP2) (Homo sapiens, UniProt P43116).
T2 construct: expressed in transfected cells; host or cells: HEK293T
Nature of the data set: EP2 receptor cAMP assay (agonist mode). The settings on record: Table 24; relative to treprostinil EC50 values; * partial agonists or ambiguous dose-response curves; image character = too high to realistically calculate. It counts as cell-based.

In data set [6] the target is T3, prostaglandin D2 (PGD2) receptor 1 (DP1) (Homo sapiens, UniProt Q13258).
T3 construct: expressed in transfected cells; host or cells: HEK293T
T3 sequence (Q13258 1-359): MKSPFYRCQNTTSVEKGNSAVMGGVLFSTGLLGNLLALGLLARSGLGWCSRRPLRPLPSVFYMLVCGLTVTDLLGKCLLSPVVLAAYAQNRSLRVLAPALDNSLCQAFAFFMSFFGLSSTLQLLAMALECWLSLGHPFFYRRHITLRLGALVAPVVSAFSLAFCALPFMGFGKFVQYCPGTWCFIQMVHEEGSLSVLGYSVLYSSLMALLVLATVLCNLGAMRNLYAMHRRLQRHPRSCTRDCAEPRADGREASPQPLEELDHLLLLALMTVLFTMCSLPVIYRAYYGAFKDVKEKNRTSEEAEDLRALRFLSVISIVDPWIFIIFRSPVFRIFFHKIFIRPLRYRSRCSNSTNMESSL
Nature of the data set: DP1 receptor cAMP assay (agonist mode). It counts as cell-based. The note with it: Table 24; relative to treprostinil EC50 values; * partial agonists or ambiguous dose-response curves; image character = too high to realistically calculate.
Description: Gas Cyclic AMP (cAMP) Assay: In agonist mode testing, cells were seeded in a 384-well plate at an appropriate density and then were treated with compounds and incubated at 37° C. for 20 minutes. The reaction was terminated by sequentially adding sequentially adding trFluor™ Eu-labeled cAMP and trFluor™ 650-labeled anti-cAMP antibody in lysis buffer. […] All testing wells contained 0.1% DMSO in the final concentrations.
Data in graphs are represented in Mean±SD. Dose-dependent responses were fitted with sigmoidal dose-response curves allowing variable slopes using GraphPad Prism version 6 (Graphpad Prism).

The next data set addresses T4, PGE2 receptor 1 (EP1) (Homo sapiens, UniProt P34995).
T4 construct: expressed in transfected cells; host or cells: HEK293T
T4 sequence (P34995 1-402): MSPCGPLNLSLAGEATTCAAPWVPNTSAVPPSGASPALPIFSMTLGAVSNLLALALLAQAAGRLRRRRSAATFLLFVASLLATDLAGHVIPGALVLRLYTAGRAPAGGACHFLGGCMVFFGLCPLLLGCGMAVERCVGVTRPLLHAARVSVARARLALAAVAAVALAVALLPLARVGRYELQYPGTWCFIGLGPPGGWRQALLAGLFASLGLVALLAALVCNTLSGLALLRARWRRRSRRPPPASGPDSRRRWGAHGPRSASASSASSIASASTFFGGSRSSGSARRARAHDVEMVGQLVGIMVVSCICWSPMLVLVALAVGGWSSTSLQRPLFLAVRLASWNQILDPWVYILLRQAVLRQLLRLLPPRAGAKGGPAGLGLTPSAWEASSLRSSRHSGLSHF
Nature of the data set: EP1 receptor calcium assay (agonist mode). Type of data set: cell-based. The note with it: Table 24; relative to treprostinil EC50 values; * partial agonists or ambiguous dose-response curves; image character = too high to realistically calculate. Here is the method: Assay Buffer: • EP1 Calcium and DP1 cAMP Assays: HBSS plus 20 mM HEPES • EP2 and IP1 cAMP Assays: 1 mM IBMX in HBSS plus 20 mM HEPES
Cells were thawed from frozen cells and resuspended in assay buffer at desired concentrations. cAMP or Calcium assays were performed according to the manufacturer's protocol using Multiscreen™ TR-FRET cAMP 1.0 No Wash Assay Kit or Multiscreen™ Calcium 1.0 No Wash Kit.
Calcium Assay: Cells were seeded in a 384-well plate at an appropriate density. The calcium assay was conducted according to the manufacturer's protocols (Multiscreen Calcium 1.0 No Wash Assay Kit). The calcium dye loading buffer was added to the cells and incubated for 1 hour at 37° C. For agonist mode, cells were injected with Iloprost control agonist or test compound by FLIPR and calcium mobilization was monitored for 180 seconds with compound injected into the wells at the 19th second. Fluorescent emissions were read at 525 nm with excitation at 490 nm in a FLIPR 384 instrument (Molecular Devices).
Calcium Assay: Calcium assay results are expressed as “RFU” as defined in figure below. Data are represented in Mean±SEM. Dose-response curves were fitted using “Sigmoidal dose-response (variable slope)” function in GraphPad Prism 6. EC50 values were calculated based on the fitted curves.
Prostaglandin receptor activity assessments with treprostinil and treprostinil analogues have been conducted, and a historical, positive control agonist for these receptors, iloprost (for IP, EP2 and EP1) or PGD2 (for DP1), was also included. These studies used cell lines overexpressing either human IP, EP2 or DP1, or EP1 receptors, and following incubation with varying concentrations of compounds, cAMP levels were measured using Fluorescence Resonance Energy Transfer (FRET). The 665/620 (acceptor/donor emission signals) ratio is inversely proportional to the concentration of cAMP.

The conditions of data set [7]: both, human, 1 μM, pH 7.4.
Description: (§1) Mixed-gender human liver microsomes, male Sprague-Dawley rat liver microsomes, and male Beagle dog liver microsomes were purchased from XenoTech. The reaction mixture, minus NADPH, was prepared as described below. […] An aliquot of the reaction mixture (without cofactor) was equilibrated in a shaking water bath at 37° C. for 5 minutes. The reaction was initiated by the addition of cofactor, and the mixture was incubated in a shaking water bath at 37° C. Aliquots (200 μL) were withdrawn at 0, 10, 20, 30, and 60 minutes. Test article samples were immediately combined with 400 μL of ice-cold acetonitrile (ACN) to terminate the reaction. […] The samples were then mixed and centrifuged to precipitate proteins. Aliquots of the supernatant were removed, diluted 1:1 into distilled water containing internal standard, and analyzed by LC-MS/MS against calibration standards prepared in a matched matrix. All samples were analyzed for the dosed prodrugs as well as the drug, treprostinil. The test article concentration was compared to the concentration at time 0 to determine the percent of test article remaining at each time point. Half-lives and clearance were calculated using GraphPad software, fitting to a single-phase exponential decay equation.
Liver Microsomes 0.5 mg/mL
Potassium Phosphate, pH 7.4 100 mM
The conditions of data set [8]: male, Sprague-Dawley, rat, 1 μM, pH 7.4.
Description: as §1
Liver Microsomes 0.5 mg/mL
Potassium Phosphate, pH 7.4 100 mM
For data set [9] the following is noted: male, Beagle, dog, 1 μM, pH 7.4.
Description: as §1
Liver Microsomes 0.5 mg/mL
Potassium Phosphate, pH 7.4 100 mM
For data set [10] the following is noted: human, 1 μM.
Description: For each of the test articles, 495 μL of skin homogenate was added to triplicate centrifuge tubes. To each tube, 5 μL of a 100 μM solution of test article was added, for a final test article dosing concentration of 1 μM. The tubes were placed onto a Thermomixer and maintained at 37° C. with gentle shaking for the duration of the experiment. At each time point (0, 30, 60, and 120 minutes), a 100 μL aliquot was removed from each tube and combined with 200 μL of acetonitrile to stop the stability reaction. The tubes were mixed and centrifuged at 3000 rpm for 10 minutes. Aliquots of supernatant were removed and diluted 1:1 with distilled water containing internal standard (2 μM treprostinil-d4). Calibration standards for the treprostinil analysis were prepared for each test article in a surrogate matrix (supernatant from a mixture of 1:2 human plasma:acetonitrile), at concentrations ranging from 1 μM to 1 nM. Calibration standards were also diluted 1:1 with distilled water containing internal standard.
Data set [11] can be described thus: Stability and formation of treprostinil in rat liver microsomes. The settings on record: male, Sprague-Dawley, pH 7.4. Background: Liver microsomes are a subcellular fraction often used to study metabolism.
Description: as §1
Liver Microsomes 0.5 mg/mL
Potassium Phosphate, pH 7.4 100 mM
A short description of data set [12]: Stability and formation of treprostinil in dog liver microsomes. The settings on record: male, Beagle, pH 7.4.
Description: as §1
Liver Microsomes 0.5 mg/mL
Potassium Phosphate, pH 7.4 100 mM
The nature of data set [13]: Stability and formation of treprostinil in human liver microsomes. The note with it: both, pH 7.4.
Description: as §1
Liver Microsomes 0.5 mg/mL
Potassium Phosphate, pH 7.4 100 mM
A short description of data set [14]: Measured solubility at pH 6.5. Type of data set: physicochemical.
For data set [15] the following is noted: cited from earlier work.

Like-named read-outs stand apart in the source and are kept apart here.

T1 sequence (P43119 whole entry): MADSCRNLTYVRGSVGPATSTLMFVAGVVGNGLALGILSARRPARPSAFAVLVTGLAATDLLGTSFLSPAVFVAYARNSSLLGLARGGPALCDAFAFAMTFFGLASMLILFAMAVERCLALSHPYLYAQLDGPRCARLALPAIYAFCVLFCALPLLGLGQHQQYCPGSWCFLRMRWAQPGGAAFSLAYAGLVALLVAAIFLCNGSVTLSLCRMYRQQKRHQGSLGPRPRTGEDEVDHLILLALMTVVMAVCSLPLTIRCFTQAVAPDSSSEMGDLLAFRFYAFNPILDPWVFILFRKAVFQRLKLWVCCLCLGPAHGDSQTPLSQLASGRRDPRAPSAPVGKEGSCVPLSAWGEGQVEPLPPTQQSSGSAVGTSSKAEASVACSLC
T2 sequence (P43116 whole entry): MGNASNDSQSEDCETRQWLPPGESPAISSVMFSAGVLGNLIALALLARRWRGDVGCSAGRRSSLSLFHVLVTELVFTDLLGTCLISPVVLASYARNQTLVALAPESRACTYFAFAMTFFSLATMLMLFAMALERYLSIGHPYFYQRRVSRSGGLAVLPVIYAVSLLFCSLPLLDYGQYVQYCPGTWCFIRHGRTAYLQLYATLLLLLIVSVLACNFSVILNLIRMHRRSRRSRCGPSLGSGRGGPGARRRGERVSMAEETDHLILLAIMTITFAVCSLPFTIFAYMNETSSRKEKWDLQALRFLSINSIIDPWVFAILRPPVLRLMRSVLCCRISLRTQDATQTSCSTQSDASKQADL

As for `CCCCC[C@@H](CC[C@@H]1[C@H]2Cc3cccc(OCC(=O)O)c3C[C@H]2C[C@H]1O)OC(=O)CC` [Prodrug LV, treprostinil side chain propionic ester], in [1], the “Treprostinil Concentration, 0 min” value amounted to 0.113 µM; the “Treprostinil Concentration, 15 min” value is 0.725 µM; the “Treprostinil Concentration, 30 min” value is 0.654 µM; the “Treprostinil Concentration, 60 min” value was 0.589 µM. In data set [1], the “Treprostinil Concentration, 120 min” value is 0.527 µM. Further, in [2], the “Treprostinil Concentration, 0 min” value was found to be 0.0159 µM; the “Treprostinil Concentration, 15 min” value amounted to 0.506 µM; the “Treprostinil Concentration, 30 min” value was 0.48 µM; the “Treprostinil Concentration, 60 min” value is 0.424 µM. In addition, in data set [2], the “Treprostinil Concentration, 120 min” value turned out to be 0.391 µM. In data set [3], the “Treprostinil Concentration, 0 min” value was 0.124 µM; the “Treprostinil Concentration, 15 min” value was found to be 0.781 µM; the “Treprostinil Concentration, 30 min” value worked out at 0.698 µM; the “Treprostinil Concentration, 60 min” value came to 0.599 µM. Further, the “Treprostinil Concentration, 120 min” value in [3] was found to be 0.53 µM. Moreover, in data set [4], the “Activity, IP Relative to Tre” value is 54x. Further, the “Activity, EP2 Relative to Tre” value in data set [5] is given as 50x. Besides, the “Activity, DP1 Relative to Tre” value in data set [6] is on record as 94x. Besides, on PGE2 receptor 1 (EP1), the “Activity, EP1 Relative to Tre” value is given as 122x*.
In the case of `CCCCC[C@@H](CC[C@@H]1[C@H]2Cc3cccc(OCC(=O)O)c3C[C@H]2C[C@H]1O)OC(C)=O` [Prodrug XLIII, 2-(((1R,2R,3aS,9aS)-1-((S)-3-acetoxyoctyl)-2-hydroxy-2,3,3a,4,9,9a-hexahydro-1H-cyclopenta[b]naphthalen-5-yl)oxy)acetic acid], the “Treprostinil Concentration, 0 min” value in data set [1] (both, human, 0 min, 1 μM, pH 7.4) was found to be 0.00744 µM; in data set [2] (male, Sprague-Dawley, rat, 0 min, 1 μM, pH 7.4), 0.00292 µM; in [3] (male, Beagle, dog, 0 min, 1 μM, pH 7.4), 0.0381 µM; in [7] (0 min), 0.883 µM; in data set [8] (0 min), 0.035 µM; in data set [9] (0 min), 0.964 µM. For the same molecule, the “Treprostinil Concentration, 0 min” value in data set [10] (0 min) was 0.0034 µM. The “Treprostinil Concentration, 15 min” value in data set [1] (both, human, 15 min, 1 μM, pH 7.4) was 0.573 µM; in data set [2] (male, Sprague-Dawley, rat, 15 min, 1 μM, pH 7.4) it was 0.161 µM; in [3] (male, Beagle, dog, 15 min, 1 μM, pH 7.4), 0.628 µM; in data set [7] (15 min), 0.681 µM; in data set [8] (15 min), 0.0741 µM; in data set [9] (15 min), 0.917 µM. In addition, the “Treprostinil Concentration, 30 min” value was determined as 0.623 µM in [1] (both, human, 30 min, 1 μM, pH 7.4); 0.266 µM in data set [2] (male, Sprague-Dawley, rat, 30 min, 1 μM, pH 7.4); 0.543 µM in data set [3] (male, Beagle, dog, 30 min, 1 μM, pH 7.4); 0.602 µM in [7] (30 min); 0.111 µM in [8] (30 min); 0.899 µM in [9] (30 min). Also, the “Treprostinil Concentration, 30 min” value in [10] (30 min) came out at 0.382 µM. Also, the “Treprostinil Concentration, 60 min” value in data set [1] (both, human, 60 min, 1 μM, pH 7.4) worked out at 0.54 µM; in data set [2] (male, Sprague-Dawley, rat, 60 min, 1 μM, pH 7.4), 0.397 µM; in [3] (male, Beagle, dog, 60 min, 1 μM, pH 7.4), 0.446 µM; in [7] (60 min), 0.513 µM; in data set [8] (60 min) it was 0.145 µM; in data set [9] (60 min), 0.932 µM. In addition, the “Treprostinil Concentration, 60 min” value in data set [10] (60 min) amounted to 0.583 µM. Further, the “Treprostinil Concentration, 120 min” value was 0.507 µM in [1] (both, human, 120 min, 1 μM, pH 7.4); 0.503 µM in data set [2] (male, Sprague-Dawley, rat, 120 min, 1 μM, pH 7.4); 0.4 µM in data set [3] (male, Beagle, dog, 120 min, 1 μM, pH 7.4); 0.341 µM in data set [7] (120 min); 0.206 µM in data set [8] (120 min); 0.873 µM in data set [9] (120 min). In data set [10] (120 min), the “Treprostinil Concentration, 120 min” value amounted to 0.839 µM. Further, the “Activity, IP Relative to Tre” value in data set [4] is recorded as 632x. Moreover, in data set [5], the “Activity, EP2 Relative to Tre” value is 461x. In addition, the “Activity, DP1 Relative to Tre” value in data set [6] is reported as 272x. In addition, on PGE2 receptor 1 (EP1), the “Activity, EP1 Relative to Tre” value is reported as 20x*.
As to `C[C@]12CC[C@H]3[C@@H](CCC4=CC(=O)CC[C@@]43C)[C@@H]1CC[C@@H]2O` [Testosterone, testosterone], the hepatocyte CLint at 1 μM in data set [1] (both, human, hepatocytes, pH 7.4) was determined as 95.9 µL/min/1e6 cells; in [2] (male, Sprague-Dawley, rat, hepatocytes, pH 7.4), 448 µL/min/1e6 cells. The same molecule registered a half-life at 1 μM in data set [3] (male, Beagle, dog, hepatocytes, pH 7.4) of 6.5 min. The values for the Half-Life in [11], in data set [12] and in data set [13] were 1.71 min, 37.7 min and 29.2 min, respectively. In addition, the microsomal CLint in data set [11] is 809 µL/min/mg; in [12], 36.8 µL/min/mg; in data set [13], 47.5 µL/min/mg.
With `CCCCC[C@H](O)CC[C@@H]1[C@H]2Cc3cccc(OCC(=O)OCC)c3C[C@H]2C[C@H]1O` [Treprostinil ethyl ester], in data set [4], the “Activity, IP Relative to Tre” value is 35x. Moreover, in data set [5], the “Activity, EP2 Relative to Tre” value is recorded as 11x. Moreover, in [6], the “Activity, DP1 Relative to Tre” value was 18x. Moreover, the “Activity, EP1 Relative to Tre” value at PGE2 receptor 1 (EP1) is on record as 30x.
For the molecule `CCCCC[C@@H](CC[C@@H]1[C@H]2Cc3cccc(OCC(=O)O)c3C[C@H]2C[C@H]1O)OC(=O)OC(C)C` [XVII], the “Measured Sol” value in data set [14] was determined as 10 mg/mL.
On the same count and under the same terms, for `CCCCC[C@@H](CC[C@@H]1[C@H]2Cc3cccc(OCC(=O)O)c3C[C@H]2C[C@H]1O)OC(=O)OCC` [XVI] the value was 10 mg/mL.
As to `CCCCC[C@H](O)CC[C@@H]1[C@H]2Cc3cccc(OCC(=O)O)c3C[C@H]2C[C@H]1O` [treprostinil, Treprostinil], the First-pass effect result in data set [15] (oral delivery, animal studies) is “approximately 60%”. The Half-life once absorbed entry in data set [15] (regardless of the route of administration) is “about 1 hour”.
